Measurements published in ChEMBL document CHEMBL4715829, “Heterodimeric Rifampicin-Tobramycin conjugates break intrinsic resistance of Pseudomonas aeruginosa to doxycycline and chloramphenicol in vitro and in a Galleria mellonella in vivo model” (Eur J Med Chem, 2019).

Experiments:
Format in all cases: functional
[1] = test system: Pseudomonas aeruginosa; assay: Antibacterial activity against Pseudomonas aeruginosa 259-96918 assessed as reduction in bacterial growth by measuring doxycycline MIC at 2 ug/ml incubated for 18 hrs in presence of doxycycline by broth microdilution assay (reference value: 32 ug/ml); details: dose 2 µg/ml
[2] = test system: Pseudomonas aeruginosa; assay: Antibacterial activity against Pseudomonas aeruginosa 264-101354 assessed as reduction in bacterial growth by measuring doxycycline MIC at 4 ug/ml incubated for 18 hrs in presence of doxycycline by broth microdilution assay (reference value: 64 ug/ml); details: dose 4 µg/ml
[3] = test system: Pseudomonas aeruginosa; assay: Antibacterial activity against Pseudomonas aeruginosa 259-96918 assessed as reduction in bacterial growth by measuring chloramphenicol MIC at 8 ug/ml incubated for 18 hrs in presence of chloramphenicol by broth microdilution assay (reference value: 1024 ug/ml); details: dose 8 µg/ml
[4] = test system: Pseudomonas aeruginosa; assay: Antibacterial activity against Pseudomonas aeruginosa 260-97103 assessed as fractional inhibitory concentration incubated for 18 hrs in presence of doxycycline by broth microdilution assay
[5] = test system: Pseudomonas aeruginosa; assay: Antibacterial activity against Pseudomonas aeruginosa 262-101856 assessed as reduction in bacterial growth by measuring chloramphenicol MIC at 8 ug/ml incubated for 18 hrs in presence of chloramphenicol by broth microdilution assay (reference value: 2048 ug/ml); details: dose 8 µg/ml
[6] = test system: Pseudomonas aeruginosa; assay: Antibacterial activity against wild type Pseudomonas aeruginosa PAO1 assessed as reduction in bacterial growth by measuring chloramphenicol MIC at 0.25 ug/ml incubated for 18 hrs in presence of chloramphenicol by broth microdilution assay (reference value: 32 ug/ml); details: dose 0.25 µg/ml
[7] = test system: Pseudomonas aeruginosa; assay: Antibacterial activity against Pseudomonas aeruginosa 259-96918 assessed as fractional inhibitory concentration incubated for 18 hrs in presence of chloramphenicol by broth microdilution assay
[8] = test system: Pseudomonas aeruginosa; assay: Antibacterial activity against Pseudomonas aeruginosa 91433 assessed as fractional inhibitory concentration in presence of chloramphenicol incubated for 18 hrs by broth microdilution assay
[9] = test system: Pseudomonas aeruginosa; assay: Antibacterial activity against Pseudomonas aeruginosa 100036 assessed as reduction in bacterial growth by measuring doxycycline MIC at 8 ug/ml incubated for 18 hrs in presence of doxycycline by broth microdilution assay (reference value: 64 ug/ml); details: dose 8 µg/ml
[10] = test system: Klebsiella pneumoniae; assay: Potentiation of doxycycline-induced antibacterial activity against Klebsiella pneumoniae ATCC 16381 assessed as fold change in doxycycline MIC at 7.6 uM incubated for 18 hrs in presence of doxycycline by broth microdilution assay relative to control
[11] = test system: Pseudomonas aeruginosa; assay: Potentiation of doxycycline-induced antibacterial activity against Pseudomonas aeruginosa 260-97103 assessed as fold change in doxycycline MIC at 7.6 uM incubated for 18 hrs in presence of doxycycline by broth microdilution assay relative to control
[12] = test system: Acinetobacter baumannii; assay: Potentiation of doxycycline-induced antibacterial activity against Acinetobacter baumannii ATCC 17978 assessed as fold change in doxycycline MIC at 7.6 uM incubated for 18 hrs in presence of doxycycline by broth microdilution assay relative to control
[13] = test system: Pseudomonas aeruginosa; assay: Potentiation of chloramphenicol-induced antibacterial activity against Pseudomonas aeruginosa 262-101856 assessed as fold change in chloramphenicol MIC at 7.6 uM incubated for 18 hrs in presence of chloramphenicol by broth microdilution assay relative to control
[14] = test system: Enterobacter cloacae; assay: Potentiation of chloramphenicol-induced antibacterial activity against Enterobacter cloacae ATCC 117029 assessed as fold change in chloramphenicol MIC at 7.6 uM incubated for 18 hrs in presence of chloramphenicol by broth microdilution assay relative to control
[15] = test system: Pseudomonas aeruginosa; assay: Antibacterial activity against Pseudomonas aeruginosa 264-101354 assessed as potentiation of doxycycline-induced antibacterial activity by measuring doxycycline MIC at 7.6 uM incubated for 18 hrs in presence of doxycycline by broth microdilution assay (reference value: 64 ug/ml)
[16] = test system: Pseudomonas aeruginosa; assay: Antibacterial activity against Pseudomonas aeruginosa 260-97103 infected in Galleria mellonella larvae assessed as survival of larvae at 100 mg/kg treated at 3 hrs post-infection in presence of doxycycline and measured after 24 hrs relative to control
[17] = test system: Acinetobacter baumannii; assay: Potentiation of chloramphenicol-induced antibacterial activity against Acinetobacter baumannii ATCC 17978 assessed as fold change in chloramphenicol MIC at 9.8 uM incubated for 18 hrs in presence of chloramphenicol by broth microdilution assay relative to control
[18] = test system: Pseudomonas aeruginosa; assay: Antibacterial activity against Pseudomonas aeruginosa 260-97103 infected in Galleria mellonella larvae assessed as survival of larvae at 75 mg/kg treated at 3 hrs post-infection in presence of doxycycline and measured after 18 hrs relative to control
[19] = test system: Pseudomonas aeruginosa; assay: Potentiation of doxycycline-induced antibacterial activity against Pseudomonas aeruginosa 91433 assessed as fold change in doxycycline MIC at 9.8 uM incubated for 18 hrs in presence of doxycycline by broth microdilution assay relative to control
[20] = test system: Pseudomonas aeruginosa; assay: Antibacterial activity against Pseudomonas aeruginosa 114228 assessed as fractional inhibitory concentration incubated for 18 hrs in presence of tigecycline by broth microdilution assay
[21] = test system: Pseudomonas aeruginosa; assay: Potentiation of chloramphenicol-induced antibacterial activity against Pseudomonas aeruginosa 91433 assessed as fold change in chloramphenicol MIC at 9.8 uM incubated for 18 hrs in presence of chloramphenicol by broth microdilution assay relative to control
[22] = test system: Pseudomonas aeruginosa; assay: Antibacterial activity against Pseudomonas aeruginosa 259-96918 assessed as potentiation of chloramphenicol-induced antibacterial activity by measuring chloramphenicol MIC at 9.8 uM incubated for 18 hrs in presence of chloramphenicol by broth microdilution assay (reference value: 1024 ug/ml)
[23] = test system: Pseudomonas aeruginosa; assay: Antibacterial activity against Pseudomonas aeruginosa 264-101354 assessed as fractional inhibitory concentration index incubated for 18 hrs in presence of tigecycline by broth microdilution assay
[24] = test system: Escherichia coli; assay: Potentiation of doxycycline-induced antibacterial activity against Escherichia coli ATCC 25922 assessed as fold change in doxycycline MIC at 9.8 uM incubated for 18 hrs in presence of doxycycline by broth microdilution assay relative to control
[25] = test system: Escherichia coli; assay: Potentiation of chloramphenicol-induced antibacterial activity against Escherichia coli ATCC 25922 assessed as fold change in chloramphenicol MIC at 9.8 uM incubated for 18 hrs in presence of chloramphenicol by broth microdilution assay relative to control
[26] = test system: Pseudomonas aeruginosa; assay: Antibacterial activity against Pseudomonas aeruginosa 100036 assessed as fractional inhibitory concentration incubated for 18 hrs in presence of rifampicin by broth microdilution assay
[27] = test system: Pseudomonas aeruginosa; assay: Antibacterial activity against Pseudomonas aeruginosa 100036 assessed as potentiation of chloramphenicol-induced antibacterial activity by measuring chloramphenicol MIC at 9.8 uM incubated for 18 hrs in presence of chloramphenicol by broth microdilution assay (reference value: 1024 ug/ml)
[28] = test system: Pseudomonas aeruginosa; assay: Antibacterial activity against Pseudomonas aeruginosa 100036 assessed as fractional inhibitory concentration incubated for 18 hrs in presence of minocycline by broth microdilution assay
[29] = test system: Pseudomonas aeruginosa; assay: Antibacterial activity against Pseudomonas aeruginosa 100036 assessed as fractional inhibitory concentration index incubated for 18 hrs in presence of rifampicin by broth microdilution assay
[30] = test system: Pseudomonas aeruginosa; assay: Antibacterial activity against Pseudomonas aeruginosa 91433 assessed as fractional inhibitory concentration index incubated for 18 hrs in presence of rifampicin by broth microdilution assay

For `CO[C@H]1/C=C/O[C@@]2(C)Oc3c(C)c(O)c4c(O)c(c(/C=N/N5CCN(C)CC5)c(O)c4c3C2=O)NC(=O)/C(C)=C\C=C\[C@H](C)[C@H](O)[C@@H](C)[C@@H](O)[C@@H](C)[C@H](OC(C)=O)[C@@H]1C` [RIFAMPIN], the MIC [1] was 32 µg/mL and the MIC [2] was 32 µg/mL.

`NC[C@H]1O[C@H](O[C@H]2[C@H](O)[C@@H](O[C@H]3O[C@H](CO)[C@@H](O)[C@H](N)[C@H]3O)[C@H](N)C[C@@H]2N)[C@H](N)C[C@@H]1O` [TOBRAMYCIN] showed an MIC [3] of 1020 µg/mL, an FIC [4] of 0.5 and an MIC [5] of 2050 µg/mL. The MIC [6] was 32 µg/mL, the FIC [7] was 0.25 and the FIC [8] was 0.5. It also gave an MIC [9] of 64 µg/mL.

For `CO[C@H]1/C=C/O[C@@]2(C)Oc3c(C)c(O)c4c(O)c(c(/C=N/N5CCN(Cc6cn(CCCCCCCCCCCCO[C@@H]7[C@@H](O[C@H]8O[C@H](CO)[C@@H](O)[C@H](N)[C@H]8O)[C@H](N)C[C@H](N)[C@H]7O[C@H]7O[C@H](CN)[C@@H](O)C[C@H]7N)nn6)CC5)c(O)c4c3C2=O)NC(=O)/C(C)=C\C=C\[C@H](C)[C@H](O)[C@@H](C)[C@@H](O)[C@@H](C)[C@H](OC(C)=O)[C@@H]1C.O=C(O)C(F)(F)F.O=C(O)C(F)(F)F.O=C(O)C(F)(F)F.O=C(O)C(F)(F)F.O=C(O)C(F)(F)F`, the “fold change (FC)” value [10] was 0, the “fold change (FC)” value [11] was 4 and the “fold change (FC)” value [12] was 0. For the same compound, the “fold change (FC)” value [13] was 4, the “fold change (FC)” value [14] was 0 and the MIC [15] was 1 µg/mL.

For `CO[C@H]1/C=C/O[C@@]2(C)Oc3c(C)c(O)c4c(O)c(c(/C=N/N5CCN(Cc6cn(CCCCCCO[C@@H]7[C@@H](O[C@H]8O[C@H](CO)[C@@H](O)[C@H](N)[C@H]8O)[C@H](N)C[C@H](N)[C@H]7O[C@H]7O[C@H](CN)[C@@H](O)C[C@H]7N)nn6)CC5)c(O)c4c3C2=O)NC(=O)/C(C)=C\C=C\[C@H](C)[C@H](O)[C@@H](C)[C@@H](O)[C@@H](C)[C@H](OC(C)=O)[C@@H]1C.Cl.Cl.Cl.Cl.Cl`, the survival at 100 mg/kg [16] was 75%, the “fold change (FC)” value [17] was 0 and the survival at 75 mg/kg [18] was 75%. For the same compound, the “fold change (FC)” value [19] was 4, the FIC [20] was <0.031 and the “fold change (FC)” value [21] was 4. The MIC [22] was 256 µg/mL, the “fractional inhibitory concentration index (FICI)” value [23] was 0.19 and the “fold change (FC)” value [24] was 0. For the same compound, the “fold change (FC)” value [25] was 0, the FIC [26] was 0.063 and the MIC [27] was 4 µg/mL. For the same compound, the FIC [28] was 0.063, the “fractional inhibitory concentration index (FICI)” value [29] was 0.31 and the “fractional inhibitory concentration index (FICI)” value [30] was 1.13.
